Blank lines part the entries; values can stand above or below the compound they belong to.
Assays:
SHR rats = test: Systolic blood pressure in male SHR rats, tail-cuff method; type: in vivo, rat; conditions: day 7, mean +/-SEM
Description: Twenty male 16-week-old SHR rats were used for investigation of short-term effects of the new drug combination on systolic blood pressure. Prior to starting the treatment procedure, rats were conditioned to the experimental procedure by daily blood pressure measurements using the tail-cuff method for 1 week. […] Daily blood pressure measurements were performed 4 h following drug administration and continued throughout the whole treatment period. Blood-pressure data were evaluated by calculating the relative change in systolic blood pressure compared to the vehicle group at day 7 of drug administration. Statistical comparison between the groups was conducted by using Student's T-test.
Mean body weight and baseline systolic blood pressure of SHR rats were determined at the beginning of the treatment period resulting in a mean body weight of 283 g and mean systolic blood pressure of 196 mmHg. Following 7 days of daily oral administration of different compounds and compound combinations, systolic blood pressure was monitored by tail-cuff method and the relative changes compared to vehicle treated control rats (V) mean values are shown with corresponding standard errors of the mean (+/−SEM) (FIG. 1).

APN (EC 3.4.11.2) = APN (EC 3.4.11.2) (Homo sapiens, UniProt P15144); conditions: APN vs APA; cited from earlier work
human APA in plasma = test: Ex vivo APA activity and Ang 1-8 levels in human heparin plasma plus recombinant human renin; type: biochemical
Description: (§1) APA activity was determined by measuring Ang 2-8 formation using LC-MS/MS. The Ang 2-8 formation rate is given in pg Ang 2-8/ml per minute. […] Following the incubation period, samples were cooled on ice, stabilized by the addition of protease inhibitors and analyzed for Ang 1-8 levels by LC-MS/MS.

[1] = tested on: Ang 1-8 and Ang 1-7 levels in human whole blood; test: Ang 1-8 and Ang 1-7 levels in human heparinized whole blood plus recombinant human renin, ex vivo, LC-MS/MS; type: biochemical; conditions: human whole blood + 100 pg/ml renin, 60 min 37° C., ACE inhibitors 10 μM; for Ang 1-7 level: vehicle control 27 pg/ml; for Ang 1-8 level: vehicle control 686 pg/ml
Description: Blood was collected from a human healthy volunteer using a standard heparin blood collection tube. Recombinant human renin was added to whole blood at a concentration of 100 pg/ml in order to simulate RAS hyper-activation. Drugs and combinations were added to different plasma samples at indicated final concentrations and combinations (FIG. 2) using appropriate solvent controls for each compound or combination tested. Following an incubation period of 60 min at 37° C., samples were stabilized by addition of protease inhibitors and Ang 1-8 and Ang 1-7 levels were measured by mass spectrometry.
Ang 1-8 and Ang 1-7 levels were measured following 1 h of incubating the compounds with human heparinized whole blood (plus recombinant human renin) at 37° C.

[2] = target: T1, APA (recombinant human ENPEP) (Homo sapiens, UniProt Q07075); test: In vitro APA activity assay: conversion of Ang 1-8 to Ang 2-8, LC-MS/MS; type: biochemical; conditions: 0.1 μM Amastatin, 1 μg/ml APA
T1 construct: purchased R&D 2499-ZN
Description: as §1

Balb/c mice = test: Plasma Ang 1-8 and Ang 1-7 levels in Balb/c mice after intra-peritoneal injection, LC-MS/MS; type: in vivo, mouse
Description: Mice were sacrificed 4 h following drug administration and blood was collected in the presence of protease inhibitors suitable for stabilization of angiotensin peptides in the collected sample. Following centrifugation of blood at 2500 g for 5 min at 4° C., Ang 1-8 and Ang 1-7 was quantified in the plasma samples by LC-MS/MS analysis.

APA over APN = conditions: cited from earlier work
rats = conditions: administered to the periphery by intravenous injection in rats; cited from earlier work
SHR rat = conditions: one SHR rat, i.v. 50 μmol/kg Lisinopril then 20 μmol/kg Amastatin, blood 10 min after each infusion
Description: A male SHR rat was anesthetized by isoflurane followed by preparation of the jugular vein and insertion of an infusion catheter. At the beginning of the experiment (t=0 min) 200 μl of phosphate buffered saline was infused into the jugular vein within a period of 15 seconds. 10 min following saline infusion, 500 μl heparin blood was collected from the tail vein and placed on ice. Another 10 min later (t=20 min) a dose of 50 μmol/kg Lisinopril was in fused in a volume of 200 μl phosphate buffered saline, followed by another tail vein heparin blood collection of 500 μl heparin blood 10 min after Lisinopril infusion. […] Following centrifugation of blood at 2500 g for 5 min at 4° C., Ang 1-8 and Ang 1-7 was quantified in the plasma samples by LC-MS/MS analysis.

APA in the brain = target: T2, APA in the brain (Rattus norvegicus, UniProt P50123); conditions: via inhibition of APA by active metabolite EC-33 in the brain; cited from earlier work
T2 construct: host or cells: brain, in vivo
T2 sequence (P50123 whole entry): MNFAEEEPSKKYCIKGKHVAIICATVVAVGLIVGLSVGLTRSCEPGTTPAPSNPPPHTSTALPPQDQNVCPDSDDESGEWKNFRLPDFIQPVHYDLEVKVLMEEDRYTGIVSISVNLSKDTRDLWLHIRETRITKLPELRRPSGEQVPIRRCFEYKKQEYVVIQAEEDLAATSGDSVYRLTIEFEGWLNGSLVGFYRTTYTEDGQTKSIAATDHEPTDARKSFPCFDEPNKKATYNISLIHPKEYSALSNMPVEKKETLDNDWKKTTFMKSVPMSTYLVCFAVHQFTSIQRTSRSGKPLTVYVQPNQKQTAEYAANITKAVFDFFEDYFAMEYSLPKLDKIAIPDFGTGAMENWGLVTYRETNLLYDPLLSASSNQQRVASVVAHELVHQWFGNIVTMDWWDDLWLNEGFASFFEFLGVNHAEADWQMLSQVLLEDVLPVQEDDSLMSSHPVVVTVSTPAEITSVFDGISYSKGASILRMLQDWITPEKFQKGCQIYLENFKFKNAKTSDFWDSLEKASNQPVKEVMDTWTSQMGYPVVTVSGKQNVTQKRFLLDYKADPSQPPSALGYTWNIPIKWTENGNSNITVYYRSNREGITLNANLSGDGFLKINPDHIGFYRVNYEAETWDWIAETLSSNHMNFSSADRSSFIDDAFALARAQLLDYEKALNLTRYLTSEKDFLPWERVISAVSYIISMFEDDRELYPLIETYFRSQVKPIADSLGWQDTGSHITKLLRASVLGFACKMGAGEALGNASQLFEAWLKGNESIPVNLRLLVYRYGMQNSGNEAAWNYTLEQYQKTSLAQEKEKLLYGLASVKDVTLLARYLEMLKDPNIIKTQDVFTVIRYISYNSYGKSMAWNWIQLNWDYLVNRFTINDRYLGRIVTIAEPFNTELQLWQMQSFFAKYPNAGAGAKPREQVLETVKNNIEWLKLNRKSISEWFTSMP

T1 sequence (Q07075 whole entry): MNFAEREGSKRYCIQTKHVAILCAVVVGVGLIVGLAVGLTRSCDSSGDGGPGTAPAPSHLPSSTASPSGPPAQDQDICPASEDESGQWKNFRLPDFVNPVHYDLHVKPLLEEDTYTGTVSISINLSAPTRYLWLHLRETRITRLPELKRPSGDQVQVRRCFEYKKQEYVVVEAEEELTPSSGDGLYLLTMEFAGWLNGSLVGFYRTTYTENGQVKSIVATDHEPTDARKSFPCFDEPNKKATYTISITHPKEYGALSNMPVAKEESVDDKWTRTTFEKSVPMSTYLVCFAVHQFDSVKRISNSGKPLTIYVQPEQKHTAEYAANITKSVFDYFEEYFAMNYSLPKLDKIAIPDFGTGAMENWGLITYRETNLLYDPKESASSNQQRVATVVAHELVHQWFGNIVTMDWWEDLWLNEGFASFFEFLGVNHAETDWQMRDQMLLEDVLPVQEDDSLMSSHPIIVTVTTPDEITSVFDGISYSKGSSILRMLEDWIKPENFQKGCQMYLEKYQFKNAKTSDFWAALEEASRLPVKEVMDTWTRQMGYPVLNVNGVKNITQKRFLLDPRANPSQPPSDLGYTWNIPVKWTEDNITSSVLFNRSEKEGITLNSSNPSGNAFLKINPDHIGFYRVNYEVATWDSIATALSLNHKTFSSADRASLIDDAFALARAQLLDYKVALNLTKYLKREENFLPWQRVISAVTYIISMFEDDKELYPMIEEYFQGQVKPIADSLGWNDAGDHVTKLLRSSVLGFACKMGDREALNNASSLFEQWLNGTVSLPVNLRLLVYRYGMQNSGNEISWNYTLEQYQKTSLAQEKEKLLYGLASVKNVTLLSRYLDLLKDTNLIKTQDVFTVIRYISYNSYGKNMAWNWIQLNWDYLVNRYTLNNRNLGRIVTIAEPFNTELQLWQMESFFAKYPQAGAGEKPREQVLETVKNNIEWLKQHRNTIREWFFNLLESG
APN (EC 3.4.11.2), sequence (P15144 whole entry, species assumed): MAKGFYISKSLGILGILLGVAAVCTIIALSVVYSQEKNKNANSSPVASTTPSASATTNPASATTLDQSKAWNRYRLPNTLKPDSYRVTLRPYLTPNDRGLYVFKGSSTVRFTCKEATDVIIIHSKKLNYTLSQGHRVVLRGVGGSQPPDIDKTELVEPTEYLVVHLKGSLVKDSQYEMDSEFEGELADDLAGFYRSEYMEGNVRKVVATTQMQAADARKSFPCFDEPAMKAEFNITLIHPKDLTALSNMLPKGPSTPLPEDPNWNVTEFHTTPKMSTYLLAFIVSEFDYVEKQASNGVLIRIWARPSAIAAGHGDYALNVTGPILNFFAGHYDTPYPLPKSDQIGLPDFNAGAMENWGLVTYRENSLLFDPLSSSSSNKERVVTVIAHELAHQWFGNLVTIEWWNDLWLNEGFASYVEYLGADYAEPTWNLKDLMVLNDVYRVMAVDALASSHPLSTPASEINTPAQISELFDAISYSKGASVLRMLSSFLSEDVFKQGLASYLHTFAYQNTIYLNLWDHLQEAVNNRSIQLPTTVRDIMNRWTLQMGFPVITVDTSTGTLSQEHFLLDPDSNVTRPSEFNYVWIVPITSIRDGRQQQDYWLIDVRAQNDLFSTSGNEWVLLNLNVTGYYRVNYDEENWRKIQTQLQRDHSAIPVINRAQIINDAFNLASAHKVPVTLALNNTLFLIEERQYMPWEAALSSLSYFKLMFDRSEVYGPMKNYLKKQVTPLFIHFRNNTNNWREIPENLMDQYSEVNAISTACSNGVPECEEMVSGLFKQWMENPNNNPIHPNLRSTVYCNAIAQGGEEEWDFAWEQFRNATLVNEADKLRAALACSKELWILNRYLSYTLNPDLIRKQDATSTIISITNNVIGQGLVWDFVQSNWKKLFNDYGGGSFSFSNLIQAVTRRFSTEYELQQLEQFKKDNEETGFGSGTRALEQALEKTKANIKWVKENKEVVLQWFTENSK

effect on APA activity in vitro [2]: did not affect APA activity in vitro
Ang 2-8 formation rate ([2]; 100 ng/ml Ang 1-8, 37° C. 10 min, 971 without Amastatin): 1077 pg Ang 2-8/ml per minute
SMILES: CC(C)C[C@@H](N)[C@H](O)C(=O)N[C@H](C(=O)N[C@H](C(=O)N[C@@H](CC(=O)O)C(=O)O)C(C)C)C(C)C [Amastatin]
increase in mean systolic blood pressure compared to vehicle treated animals (SHR rats; 40 mg/kg daily for 7 days, not significant (p=0.60)): 5.8+/−7.0 mmHg
more potent in inhibiting APN compared to APA (APN (EC 3.4.11.2)): 40 fold
effect on the activity of human APA in plasma (human APA in plasma; 0.1 μM Amastatin, 1 μg/ml APA): did not affect the activity of human APA in plasma
Ang 1-8 level in human heparin plasma (human APA in plasma; 0.1 μM Amastatin, no added APA, 100 pg/ml renin, 60 min 37° C., untreated control 412 pg/ml): 752 pg/mL
reduction of Ang 1-8 levels by 1 μg/ml APA in the presence of 0.1 μM Amastatin (human APA in plasma; human heparin plasma, 266 pg/ml without Amastatin): 323 pg/mL
Ang 1-7 level [1]: 15 pg/mL
Ang 1-8 level [1]: 1016 pg/mL
change in circulating Ang 1-8 (Balb/c mice; 40 mg/kg i.p., 4 h following drug administration): decrease
plasma Ang 1-7 level (Balb/c mice; 4 h after i.p. injection, 40 mg/kg each, baseline below LLOQ): < 4 pg/mL

SMILES: C[C@H](CS)C(=O)N1CCC[C@H]1C(=O)O [Captopril]
Ang 1-7 level [1]: 100 pg/mL
Ang 1-8 level [1]: 29 pg/mL
increase of Ang 1-7 following ACE inhibitor treatment alone (Balb/c mice; 4 h after i.p. injection): not observed

SMILES: N[C@H](CS)CCS(=O)(=O)O [EC-33]
selectivity for APA over APN (APA over APN): at least 100 fold
effect on blood pressure (rats): no effect on blood pressure

SMILES: NCCCC[C@H](N[C@@H](CCc1ccccc1)C(=O)O)C(=O)N1CCC[C@H]1C(=O)O [Lisinopril]
decrease in systolic blood pressure compared to vehicle treated animals (SHR rats; 40 mg/kg of each drug daily for 7 days, measured 4 h after dosing, 5 animals per group): 18.6+/−3.9 mmHg
Ang 1-7 level [1]: 153 pg/mL
Ang 1-8 level [1]: 33 pg/mL
increase of Ang 1-7 following ACE inhibitor treatment alone (Balb/c mice; 4 h after i.p. injection): not observed
equilibrium Ang 1-8 level (SHR rat; after saline 42.7 pg/ml): 21.5 pg/mL
equilibrium Ang 1-7 level (SHR rat; after saline below 3.4 pg/ml): 12.1 pg/mL

SMILES: N[C@@H](CCS(=O)(=O)O)CSSC[C@@H](N)CCS(=O)(=O)O [RB150]
effect on blood pressure (APA in the brain): effective in lowering blood pressure

Source: US9839668B2, “Compositions and methods for the treatment of diseases related to the renin-angiotensin-system” (ATTOQUANT DIAGNOSTICS GMBH, priority 2013, dated 2017)
